Source: patent publication US9617244B2, “Antibacterial quinoline derivatives” (JANSSEN PHARMACEUTICA NV, priority 2012, dated 2017)
Structures can show the parent of a compound that is named as a salt.

SMILES | melting point [°C]
COc1nc2ccc(Br)cc2cc1C(c1cccc(Cl)c1)C1(O)CCNC(c2ccc(F)cc2C)C1 (stereo not drawn) (as salt: fumarate) [Compound 150] | 184
COc1nc2ccc(Br)cc2cc1C(c1cccc(Cl)c1)C1(O)CCNC(c2ccc(F)cc2C)C1 (stereo not drawn) (as salt: fumarate) [Compound 151] | 156
COc1nc2ccc(Br)cc2cc1C(c1cccc(Cl)c1)C1(O)CCNC(c2ccc(F)cc2C)C1 (stereo not drawn) (as salt: fumarate) [Compound 152] | 170
COc1nc2ccc(SC)cc2cc1C(c1cccc(Cl)c1)C1(O)CCNC(c2ccc(F)cc2C)C1 (stereo not drawn) (as salt: fumarate) [Compound 164] | 170
COc1nc2ccc(SC)cc2cc1C(c1cccc(Cl)c1)C1(O)CCNC(c2ccc(F)cc2C)C1 (stereo not drawn) (as salt: fumarate) [Compound 165] | 168
COc1nc2ccc(SC)cc2cc1C(c1ccccc1)C1(O)CCNC(c2ccc(F)cc2C)C1 (stereo not drawn) (as salt: fumarate) [Compound 170] | 176
COc1nc2ccc(S(C)(=O)=O)cc2cc1C(c1ccc(Cl)cc1)C1(O)CCNC(c2ccc(F)cc2C)C1 (stereo not drawn) (as salt: fumarate) [Compound 201] | 195
CS(=O)(=O)c1ccc2[nH]c(=O)c(C(c3ccc(Cl)cc3)C3(O)CCNC(Cc4ccc(F)c(F)c4)C3)cc2c1 (stereo not drawn) (as salt: fumarate) [Compound 214] | 213
COc1nc2ccc(SC)cc2cc1C(c1ccc(Cl)cc1)C1(O)CCNCC1Cc1cccc(F)c1 (stereo not drawn) (as salt: fumarate) [Compound 284] | 163
COc1nc2ccc(SC)cc2cc1C(c1ccc(Cl)cc1)C1(O)CCNCC1Cc1cccc(F)c1 (stereo not drawn) (as salt: fumarate) [Compound 286] | 177
COc1nc2ccc(SC)cc2cc1C(c1ccc(Cl)cc1)C1(O)CCNC(CC2CCCCC2)C1 (stereo not drawn) (as salt: fumarate) [Compound 288] | 150
COc1nc2ccc(F)cc2cc1C(c1ccc(Cl)cc1)C1(O)CCNC(c2ccc(F)cc2C)C1 (stereo not drawn) (as salt: fumarate) [Compound 330] | 170
COc1nc2ccc(F)cc2cc1C(c1ccc(Cl)cc1)C1(O)CCNC(c2ccc(F)cc2C)C1 (stereo not drawn) (as salt: fumarate) [Compound 331] | 166
COc1nc2ccc(F)cc2cc1C(c1ccc(Cl)cc1)C1(O)CCNC(c2ccc(F)cc2C)C1 (stereo not drawn) (as salt: fumarate) [Compound 332] | 164
COc1nc2ccc(Cl)cc2cc1C(c1ccc(Cl)cc1)C1(O)CCNC(Cc2ccc(F)cc2)C1 (stereo not drawn) (as salt: fumarate) [Compound 345] | 152 to 154
COc1nc2ccc(Cl)cc2cc1C(c1ccc(Cl)cc1)C1(O)CCNC(Cc2ccc(F)cc2)C1 (stereo not drawn) (as salt: fumarate) [Compound 346] | 151 to 153
COc1nc2ccc(Cl)cc2cc1C(c1ccc(Cl)cc1)C1(O)CCNC(Cc2ccc(F)cc2)C1 (stereo not drawn) (as salt: fumarate) [Compound 347] | 148 to 150
COc1nc2ccc(Cl)cc2cc1C(c1ccc(Cl)cc1)C1(O)CCNC(Cc2ccc(F)cc2)C1 (stereo not drawn) (as salt: fumarate) [Compound 348] | 145
COc1nc2ccc(Cl)cc2cc1C(c1ccc(SC)cc1)C1(O)CCNC(c2ccc(F)cc2C)C1 (stereo not drawn) (as salt: fumarate) [Compound 353] | 166 to 168
COc1nc2ccc(Cl)cc2cc1C(c1ccc(SC)cc1)C1(O)CCNC(c2ccc(F)cc2C)C1 (stereo not drawn) (as salt: fumarate) [Compound 354] | 168 to 170
COc1nc2ccc(Cl)cc2cc1C(c1ccc(S(C)(=O)=O)cc1)C1(O)CCNC(c2ccc(F)cc2C)C1 (stereo not drawn) (as salt: fumarate) [Compound 368] | 144

SMILES | melting point [°C]
COc1nc2ccc(Cl)cc2cc1C(c1ccc(S(C)(=O)=O)cc1)C1(O)CCNC(c2ccc(F)cc2C)C1 (stereo not drawn) (as salt: fumarate) [Compound 369] | 138
COc1nc2ccccc2cc1C(c1ccccc1)C1(O)CCNC(Cc2ccccc2)C1 (stereo not drawn) (as salt: fumarate) [Compound 399] | 222 to 224
COc1nc2ccccc2cc1C(c1ccccc1)C1(O)CCNC(Cc2ccccc2)C1 (stereo not drawn) (as salt: fumarate) [Compound 400] | 157
COc1nc2ccccc2cc1C(c1ccccc1)C1(O)CCNC(Cc2ccccc2)C1 (stereo not drawn) (as salt: fumarate) [Compound 401] | 240
COc1nc2ccccc2cc1C(c1ccccc1)C1(O)CCNC(Cc2ccccc2)C1 (stereo not drawn) (as salt: fumarate) [Compound 402] | 175 to 177
COc1nc2ccc(Cl)cc2cc1C(c1ccc(Cl)cc1)C1(O)CCNC(c2ccccc2)C1 (stereo not drawn) (as salt: fumarate) [Compound 403] | 176
COc1nc2ccc(Cl)cc2cc1C(c1ccc(Cl)cc1)C1(O)CCNC(c2ccccc2)C1 (stereo not drawn) (as salt: fumarate) [Compound 404] | 168
COc1nc2ccc(Cl)cc2cc1C(c1ccc(Cl)cc1)C1(O)CCNC(c2ccccc2)C1 (stereo not drawn) (as salt: fumarate) [Compound 405] | 184
COc1ccc2nc(OC)c(C(c3ccccc3)C3(O)CCNC(Cc4ccccc4)C3)cc2c1 (stereo not drawn) (as salt: fumarate) [Compound 408] | 135
COc1nc2ccc(Cl)cc2cc1C(c1ccc(Cl)cc1)C1(O)CCNCC1c1ccccc1 (stereo not drawn) (as salt: fumarate) [Compound 409] | 190
COc1nc2ccc(Cl)cc2cc1C(c1ccc(Cl)cc1)C1(O)CCNCC1c1ccccc1 (stereo not drawn) (as salt: fumarate) [Compound 410] | 155
COc1nc2ccc(Cl)cc2cc1C(c1ccc(Cl)cc1)C1(O)CCNCC1c1ccccc1 (stereo not drawn) (as salt: fumarate) [Compound 411] | 168
COc1nc2ccc(Cl)cc2cc1C(c1ccc(Cl)cc1)C1(O)CCNCC1c1ccccc1 (stereo not drawn) (as salt: fumarate) [Compound 412] | 166
COc1nc2ccccc2cc1C(c1ccccc1)C1(O)CCNC(c2ccccc2)C1 (stereo not drawn) (as salt: fumarate) [Compound 413] | > 250
COc1nc2ccccc2cc1C(c1ccccc1)C1(O)CCNC(c2ccccc2)C1 (stereo not drawn) (as salt: fumarate) [Compound 414] | 196
COc1nc2ccccc2cc1C(c1ccccc1)C1(O)CCNC(c2ccccc2)C1 (stereo not drawn) (as salt: fumarate) [Compound 415] | 160
COc1nc2ccccc2cc1C(c1ccccc1)C1(O)CCNC(c2ccc(F)cc2C)C1 (stereo not drawn) (as salt: fumarate) [Compound 416] | 160 to 162
COc1nc2ccc(F)cc2cc1C(c1ccc(S(C)(=O)=O)cc1)C1(O)CCNC(c2ccc(F)cc2C)C1 (stereo not drawn) (as salt: fumarate) [Compound 418] | 164 to 166
COc1nc2ccc(Br)cc2cc1C(c1cccnc1)C1(O)CCNC(Cc2ccccc2)C1 (stereo not drawn) (as salt: fumarate) [Compound 427] | 174
COc1nc2ccc(Br)cc2cc1C(c1cccnc1)C1(O)CCNC(Cc2ccccc2)C1 (stereo not drawn) (as salt: fumarate) [Compound 428] | 217
COc1nc2ccc(Br)cc2cc1C(n1cccn1)C1(O)CCNC(Cc2ccccc2)C1 (stereo not drawn) (as salt: fumarate) [Compound 429] | > 260
